Source: US11673889B2, “Substituted imidazo[4,5-c][1,8]naphthyridines as phosphodiesterase inhibitors” (Nanjing Zhengxiang Pharmaceuticals Co., Ltd., priority 2019, dated 2023)

Assays:
[1] = biological target: T1, ENPP-1, MDA-MB-231 cells (Homo sapiens, UniProt P22413); assay: cell-based; conditions: for inhibition at 20 µM: MDA-MB-231, read-out: % Inhibition (at 20 μM)
T1 sequence (P22413 1-925): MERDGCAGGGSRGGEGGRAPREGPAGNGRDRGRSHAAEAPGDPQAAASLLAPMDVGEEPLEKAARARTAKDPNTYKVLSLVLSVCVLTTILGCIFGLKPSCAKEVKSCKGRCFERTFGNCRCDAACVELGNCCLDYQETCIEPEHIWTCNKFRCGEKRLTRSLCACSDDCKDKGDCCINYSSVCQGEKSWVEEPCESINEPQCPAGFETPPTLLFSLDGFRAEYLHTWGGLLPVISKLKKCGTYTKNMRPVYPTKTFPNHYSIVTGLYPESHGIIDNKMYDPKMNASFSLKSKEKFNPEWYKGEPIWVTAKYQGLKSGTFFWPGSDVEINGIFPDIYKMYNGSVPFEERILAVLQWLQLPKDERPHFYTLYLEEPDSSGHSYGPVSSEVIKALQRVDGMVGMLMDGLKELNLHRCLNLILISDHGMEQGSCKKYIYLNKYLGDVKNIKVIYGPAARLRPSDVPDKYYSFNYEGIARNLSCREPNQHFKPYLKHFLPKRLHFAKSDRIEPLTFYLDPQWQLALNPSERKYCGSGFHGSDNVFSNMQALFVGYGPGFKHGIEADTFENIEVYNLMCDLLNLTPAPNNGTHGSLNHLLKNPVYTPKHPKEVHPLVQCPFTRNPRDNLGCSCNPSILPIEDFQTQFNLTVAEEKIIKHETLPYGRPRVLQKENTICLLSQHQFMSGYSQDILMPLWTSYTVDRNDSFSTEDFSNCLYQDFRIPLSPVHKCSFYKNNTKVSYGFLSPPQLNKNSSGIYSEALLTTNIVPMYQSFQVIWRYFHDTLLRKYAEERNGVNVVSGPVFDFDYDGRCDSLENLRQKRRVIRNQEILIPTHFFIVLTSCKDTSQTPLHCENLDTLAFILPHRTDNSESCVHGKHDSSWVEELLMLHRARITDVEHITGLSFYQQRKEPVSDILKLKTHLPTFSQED

[2] = Pharmacokinetics in mice; assay type: in vivo; conditions: mouse, plasma, male CD-1 mice; for AUC / clearance / half-life / Vd: 1 mg/kg, iv; for Vd: read-out: Vdss
In short: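 Male CD-1 mice (3 per group) dosed at 1 mg/kg IV bolus and 5 mg/kg oral gavage in 5% DMSO/40% PEG400/55% water. Jugular blood sampled from 0.033 (IV) or 0.083 (PO) up to 24 h. Plasma measured by LC/MS/MS, with PK parameters from non-compartmental analysis.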

[3] = biological target: T2, ENPP-1, HEK293 cells (Homo sapiens, UniProt P22413); assay: Cellular enzymatic assay of ENPP-1 inhibitors using TMP-pNP as substrate, HEK 293 cells; assay type: cell-based; conditions: for inhibition at 20 µM: HEK293, HEK 293 cells, read-out: Inhibition (at 20 μM)
T2 construct: ENPP-1 were mainly expressed on the surface of cell membrane; endogenous in cells; host or cells: HEK293
T2 sequence (P22413 1-925): T1 sequence (P22413 1-925)
Experimental: (§1) ENPP-1 were mainly expressed on the surface of cell membrane where it hydrolytes 2′3′-cGAMP to generate 5′-GMP and 5′-AMP. ENPP-1 also has the ability to hydrolyzes artificial phosphoric acid ester TMP-pNP to nucleotide-5′-monophosphate and p-nitrophcnol there, which is a chromogenic product.
(§2) 8 point of different concentrations of each inhibitor were prepared with the final assay concentrations starting at 20 μM. 3× series dilution by DMEM medium without FBS was applied. Prior to adding inhibitors, 75000 cells per well were incubated at 37° C., 5% CO2 in DMEM for 24 hours. After removing the supernatant medium, 50 μL inhibitor solution was added into each well with cultured cells and incubate at 37° C., 5% CO2 for 60 minutes.
(§3) The IC50 values for percent inhibition versus compound concentration are determined by fitting the inhibition curves using a four-parameter variable slope model in GraphPad Prism® 8.

[4] = Liver microsome stability, mouse; assay type: in vitro ADME
Experimental: (§4) Liver microsome assay was used to evaluate the metabolic stability of I-VI. The test article at the concentration of […] was incubated with 0.5 mg/mL liver microsome in the presence of NADPH and UDPGA as the co-factors for 0, 15, 30, 45 and 60 minutes. The incubation was carried out at 37° C. with 5% CO2 and saturating humidity. Disappearance of the test article was monitored by LC/MS/MS. the disappearance half-life (t1/2), intrinsic clearance and hepatic extraction ratio were determined.

[5] = biological target: T3, ENPP-1, Saos-2 cells (Homo sapiens, UniProt P22413); assay: Cellular enzymatic assay of ENPP-1 inhibitors using TMP-pNP as substrate, Saos-2 cells; assay type: cell-based
T3 construct: ENPP-1 were mainly expressed on the surface of cell membrane; endogenous in cells; host or cells: Saos-2
T3 sequence (P22413 1-925): T1 sequence (P22413 1-925)
Experimental: as §1, §2, §3

[6] = Liver microsome stability, human; assay type: in vitro ADME
Experimental: as §4

**Q.** What does the source list for COc1ccc2c(ncc3nc(C)n(Cc4ccc(S(N)(=O)=O)cc4)c32)n1 [Compound 48, 4-((7-methoxy-2-methyl-1H-imidazo[4,5-c][1,8]naphthyridin-1-yl)methyl)benzenesulfonamide]?
**A.** IC50 [1]: 550 nM; inhibition at 20 µM [1]: 80%; AUC [2]: 239 ng·h/mL; clearance [2]: 70 mL/min/kg; half-life [2]: 19.8 min; Vd [2]: 1.7 L/kg; IC50 [3]: 670 nM; inhibition at 20 µM [3]: 95%

**Q.** For COc1ccc2c(n1)nc(C)c1nc(C)n(Cc3ccc(S(N)(=O)=O)cn3)c12 [Compound 89, 6-((7-methoxy-2,4-dimethyl-1H-imidazo[4,5-c][1,8]naphthyridin-1-yl)methyl)pyridine-3-sulfonamide], which IC50 [1] is on record?
**A.** Its IC50 is 410 nM.

**Q.** And the inhibition at 20 µM [1]?
**A.** The inhibition at 20 µM was 78%.

**Q.** What about the AUC [2] of the same compound?
**A.** The AUC was 656 ng·h/mL.

**Q.** What about the clearance [2] of the same compound?
**A.** Its clearance is 26 mL/min/kg.

**Q.** And the half-life [2]?
**A.** Its half-life is 32.4 min.

**Q.** What about the Vd [2] of the same compound?
**A.** Its Vd is 0.8 L/kg.

**Q.** For COc1cc2ncc3ncn(Cc4ccc(S(N)(=O)=O)cn4)c3c2cc1OC [Compound 12, 6-((7,8-dimethoxy-1H-imidazo[4,5-c]quinolin-1-yl)methyl)pyridine-3-sulfonamide], which “Hepatic extraction ratio Re” value ([4]; Mouse liver microsome) is on record?
**A.** The value was 0.20.

**Q.** And the half-life ([4]; liver microsomes, Mouse liver microsome 0.5 mg/mL, NADPH and UDPGA, 37° C., read-out: Half-life t1/2)?
**A.** The half-life was 237 min.

**Q.** What about the microsomal CLint ([4]; liver microsomes, Mouse liver microsome, read-out: Intrinsic clearance Cl′int, (μL/min/mg protein)) of the same compound?
**A.** Its microsomal CLint is 5.9 µL/min/mg.

**Q.** What about the IC50 [1] of the same compound?
**A.** Its IC50 is 550 nM.

**Q.** What about the inhibition at 20 µM [1] of the same compound?
**A.** The inhibition at 20 µM was 79%.

**Q.** And the AUC [2]?
**A.** Its AUC is 93 ng·h/mL.

**Q.** And the clearance [2]?
**A.** The clearance was 180 mL/min/kg.

**Q.** What about the half-life [2] of the same compound?
**A.** Its half-life is 15 min.

**Q.** What about the Vd [2] of the same compound?
**A.** The Vd was 2.9 L/kg.

**Q.** And the bioavailability ([2]; oral gavage (PO) at 5 mg/kg vs IV 1 mg/kg)?
**A.** Its bioavailability is 0%.

**Q.** What about the IC50 [5] of the same compound?
**A.** The IC50 was 1000 nM.

**Q.** And the inhibition at 20 µM ([5]; Saos-2 cells, @20 μM, read-out: % Inhibition (@20 μM))?
**A.** Its inhibition at 20 µM is 87%.

**Q.** And the “Hepatic extraction ratio Re” value ([6]; Human liver microsome)?
**A.** Its value is 0.14.

**Q.** What about the half-life ([6]; liver microsomes, Human liver microsome 0.5 mg/mL, NADPH and UDPGA, 37° C., read-out: Half-life t1/2) of the same compound?
**A.** The half-life was 496 min.

**Q.** What about the microsomal CLint ([6]; liver microsomes, Human liver microsome, read-out: Intrinsic clearance Cl′int, (μL/min/mg protein)) of the same compound?
**A.** The microsomal CLint was 2.8 µL/min/mg.

**Q.** What about the IC50 [3] of the same compound?
**A.** Its IC50 is 2300 nM.

**Q.** What about the inhibition at 20 µM [3] of the same compound?
**A.** The inhibition at 20 µM was 85%.
